#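 96-well plates; 48 h exposure; 5 concentrations. Endpoints by linear interpolation between flanking doses. Not reached: highest tested concentration assigned. Here, GI50 denotes the concentration required for 50% inhibition of growth.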 Calls of active or inactive are those of the source. No stated cut-off is given here; in the data, active = GI50 up to about 1.1 µM and inactive = higher.
# Columns and labels:
# Test in all cases: DTP human tumour cell line panel, 48 h
# [1] = system: 786-0
# [2] = system: A498
# [3] = system: A549
# [4] = system: ACHN
# [5] = system: CAKI-1
# [6] = system: CCRF-CEM
# [7] = system: COLO 205
# [8] = system: DLD-1
# [9] = system: DMS-114
# [10] = system: DMS-273
# [11] = system: EKVX
# [12] = system: HCC 2998
# [13] = system: HCT-116
# [14] = system: HL-60
# [15] = system: HOP-18
# [16] = system: HOP-62
# [17] = system: IGROV-1
# [18] = system: K562
# [19] = system: KM-20L2
# [20] = system: KM12
# [21] = system: LOX IMVI
# [22] = system: LXFL 529
# [23] = system: M14
# [24] = system: M19-MEL
# [25] = system: MOLT-4
# [26] = system: Malme-3M
# [27] = system: NCI-H226
# [28] = system: NCI-H23
# [29] = system: NCI-H460
# [30] = system: NCI-H522
# [31] = system: OVCAR-3
# [32] = system: OVCAR-4
# [33] = system: OVCAR-8
# [34] = system: RPMI-8226
# [35] = system: SF-268
# [36] = system: SF-295
# [37] = system: SF-539
# [38] = system: SK-MEL-28
# [39] = system: SK-MEL-5
# [40] = system: SN12C
# [41] = system: SNB-19
# [42] = system: SR
# [43] = system: SW-620
# [44] = system: UACC-257
# [45] = system: UACC-62
# [46] = system: UO-31
# [47] = system: HCT-15
# [48] = system: HOP-92
# [49] = system: HT-29
# [50] = system: OVCAR-5
# [51] = system: RXF 393
# [52] = system: SK-MEL-2
# [53] = system: SK-OV-3
# [54] = system: SNB-75
# [55] = system: SNB-78
# [56] = system: TK-10
# [57] = system: U-251
# [58] = system: MCF7
# [59] = system: XF498
smiles,measurement,setting,value
COc1ccc(CC#N)c(OCc2ccccc2)c1,GI50,[1],> 100 µM (inactive)
same,GI50,[2],11.2 µM (inactive)
same,GI50,[3],78.3 µM (inactive)
same,GI50,[4],27 µM (inactive)
same,GI50,[5],> 100 µM (inactive)
same,GI50,[6],> 100 µM (inactive)
same,GI50,[7],40.4 µM (inactive)
same,GI50,[8],28.1 µM (inactive)
same,GI50,[9],30.8 µM (inactive)
same,GI50,[10],49.4 µM (inactive)
same,GI50,[11],30.7 µM (inactive)
same,GI50,[12],29.9 µM (inactive)
same,GI50,[13],33.2 µM (inactive)
same,GI50,[14],> 10 µM (inactive)
same,GI50,[15],14.2 µM (inactive)
same,GI50,[16],> 100 µM (inactive)
same,GI50,[17],29.4 µM (inactive)
same,GI50,[18],58.6 µM (inactive)
same,GI50,[19],31.3 µM (inactive)
same,GI50,[20],61.5 µM (inactive)
same,GI50,[21],43.8 µM (inactive)
same,GI50,[22],20.2 µM (inactive)
same,GI50,[23],35.6 µM (inactive)
same,GI50,[24],29.3 µM (inactive)
same,GI50,[25],30.3 µM (inactive)
same,GI50,[26],22 µM (inactive)
same,GI50,[27],6.73 µM (inactive)
same,GI50,[28],77.8 µM (inactive)
same,GI50,[29],61 µM (inactive)
same,GI50,[30],38.9 µM (inactive)
same,GI50,[31],80.5 µM (inactive)
same,GI50,[32],71.6 µM (inactive)
same,GI50,[33],> 100 µM (inactive)
same,GI50,[34],43.3 µM (inactive)
same,GI50,[35],68.4 µM (inactive)
same,GI50,[36],60 µM (inactive)
same,GI50,[37],> 100 µM (inactive)
same,GI50,[38],23.9 µM (inactive)
same,GI50,[39],19.7 µM (inactive)
same,GI50,[40],51.5 µM (inactive)
same,GI50,[41],40.6 µM (inactive)
same,GI50,[42],33.4 µM (inactive)
same,GI50,[43],31 µM (inactive)
same,GI50,[44],39.3 µM (inactive)
same,GI50,[45],28.8 µM (inactive)
same,GI50,[46],42.2 µM (inactive)
O=C1C2C3C=C4c5ccccc5N(c5ccccc5)C4(C2C(=O)N1c1ccc([N+](=O)[O-])cc1)[C@H]1C(=O)N(c2ccc([N+](=O)[O-])cc2)C(=O)[C@@H]31 (some centres undefined),GI50,[1],> 100 µM (inactive)
same,GI50,[2],> 100 µM (inactive)
same,GI50,[3],> 100 µM (inactive)
same,GI50,[4],> 100 µM (inactive)
same,GI50,[5],> 100 µM (inactive)
same,GI50,[6],> 100 µM (inactive)
same,GI50,[7],> 100 µM (inactive)
same,GI50,[8],> 100 µM (inactive)
same,GI50,[9],> 100 µM (inactive)
same,GI50,[10],> 100 µM (inactive)
same,GI50,[11],> 100 µM (inactive)
same,GI50,[12],> 100 µM (inactive)
same,GI50,[13],> 100 µM (inactive)
same,GI50,[47],> 100 µM
same,GI50,[14],> 100 µM (inactive)
same,GI50,[15],> 100 µM (inactive)
same,GI50,[16],> 100 µM (inactive)
same,GI50,[48],> 100 µM (inactive)
same,GI50,[49],> 100 µM (inactive)
same,GI50,[17],> 100 µM (inactive)
same,GI50,[18],> 100 µM (inactive)
same,GI50,[19],> 100 µM (inactive)
same,GI50,[20],> 100 µM (inactive)
same,GI50,[21],> 100 µM (inactive)
same,GI50,[23],> 100 µM (inactive)
same,GI50,[24],> 100 µM (inactive)
same,GI50,[25],> 100 µM (inactive)
same,GI50,[26],> 100 µM (inactive)
same,GI50,[27],> 100 µM (inactive)
same,GI50,[28],> 100 µM (inactive)
same,GI50,[29],> 100 µM (inactive)
same,GI50,[30],> 100 µM (inactive)
same,GI50,[31],> 100 µM (inactive)
same,GI50,[32],> 100 µM (inactive)
same,GI50,[50],> 100 µM (inactive)
same,GI50,[33],> 100 µM (inactive)
same,GI50,[34],> 100 µM (inactive)
same,GI50,[51],> 100 µM (inactive)
same,GI50,[35],> 100 µM (inactive)
same,GI50,[36],> 100 µM (inactive)
same,GI50,[37],> 100 µM (inactive)
same,GI50,[38],> 100 µM (inactive)
same,GI50,[52],> 100 µM (inactive)
same,GI50,[39],> 100 µM (inactive)
same,GI50,[53],> 100 µM (inactive)
same,GI50,[40],> 100 µM (inactive)
same,GI50,[41],> 100 µM (inactive)
same,GI50,[54],11.1 µM (inactive)
same,GI50,[55],> 100 µM (inactive)
same,GI50,[43],> 100 µM (inactive)
same,GI50,[56],> 100 µM (inactive)
same,GI50,[57],> 100 µM (inactive)
same,GI50,[44],> 100 µM (inactive)
same,GI50,[45],> 100 µM (inactive)
same,GI50,[46],> 100 µM (inactive)
CC1[C@@H]2CC=C3[C@H]4CCC5Cc6nc7c(nc6C[C@@]5(C)C4(O)CC(=O)[C@]32CO[C@]12OC(C)(C)CC2O)CC1CC[C@@H]2C3=C[C@H]4O[C@@]5(O[C@@](C)(CO)C[C@@H]5O)C(C)[C@@]4(O)[C@]3(C)[C@@H](O)CC2[C@]1(C)C7 (some centres undefined),GI50,[2],0.000342 µM (active)
same,GI50,[9],0.00011 µM (active)
same,GI50,[10],< 0.0001 µM (active)
same,GI50,[12],0.0748 µM (active)
same,GI50,[14],< 0.0001 µM (active)
same,GI50,[58],0.00194 µM (active)
same,GI50,[34],< 0.0001 µM (active)
same,GI50,[51],< 0.0001 µM (active)
same,GI50,[36],< 0.0001 µM (active)
same,GI50,[37],< 0.0001 µM (active)
same,GI50,[54],< 0.0001 µM (active)
same,GI50,[56],0.0204 µM (active)
same,GI50,[59],< 0.0001 µM (active)
